Format in all cases: in vivo, zebrafish (Danio rerio)
Assay [1] deals with ryr1b mutants. In words: Body angle measurement after 20 days of treatment. On the procedure:
In FIG. 10A, body angles of ryr1b mutants after 20 days of NIF treatment (10.0 μg/mL) are corrected and statistically indistinguishable from wild-type controls. […] Angles were measured by first drawing/extending straight lines between the eyes of the larva as well as along the midline of the trunk (shown by dotted red lines). The angle of intersection was determined using Adobe Photoshop CS3 software (WT-DMSO: 179.1±0.9°, n=6; WT-NIF: 176.8±1.1°, n=6; ryr1b-DMSO: 142.6±6.2°, n=11; ryr1b-NIF: 174.4±2.0°, n=4). Significance was determined by a one-way ANOVA (F=13.60, P<0.0001), followed by pairwise Tukey's HSD post hoc tests. […] Three independent trials were performed with larvae from three different clutches, examining a total of 14-20 wild-type and ryr1b larvae from both DMSO- and NIF-treated groups. Genotypes of individual embryos were confirmed by genomic PCR following the study. Significance was determined by a one-way ANOVA (F=10.03, P=0.0009), followed by pairwise Tukey's HSD post hoc tests. […] One representative 20-minute time interval within the recording period is shown.
This bending is likely a consequence of skeletal muscle weakness, and may be analogous to neck and trunk flexor weakness observed in human patients with MmD (FIG. 10A). To determine if NIF could correct this abnormality, larvae were treated with the compound from 1 to 20 dpf. After 20 days, body angles were measured as the angle of intersection between two lines, one drawn between the eyes of each larva and one drawn along the trunk midline. […] These improvements in morphology reflect long-term strengthening of ryr1b skeletal muscles as a result of exposure to NIF.

Assay [2] concerns ryr1b homozygous mutant zebrafish. The protocol:
(§1) In two independent experiments, two pools of 20 larvae from heterozygous ryr1b matings were treated with DMSO or with one of three different concentrations of NIF (1.0-100.0 μg/mL) at 1 dpf and evaluated in terms of touch-evoked escape behaviors at 5 dpf (n=40). Following phenotypic scoring, all living embryos were genotyped using three-primer genomic PCR. Swimming scores for larvae genotype-confirmed as ryr1b homozygous mutants are shown as a percentage of the total number of living larvae in each dose category: 1=poor swimming; 2 or 3=moderate or wild-type swimming. NIF improved mobility of ryr1b mutants at a dose of 10 μg/mL. […] Phospho-Stat3 band intensities were normalized to β-Actin control bands and quantified in Image J (NIH).
FIGS. 12A-12C show a ketoprofen dose-response and proposed mechanistic link. […] FIG. 12B is a dose-response graph for ketoprofen (KETO). Two pools of 20 larvae from heterozygous ryr1b matings were treated with DMSO or four different concentrations of KETO (1.0-100.0 μg/mL) at 1 dpf and evaluated in terms of touch-evoked escape behaviors at 5 dpf (n=40). Following phenotypic scoring, all living embryos were genotyped using three-primer genomic PCR. Swimming scores for larvae genotype-confirmed as ryr1b homozygous mutants are shown as a percentage of the total number of living larvae in each dose category: 1=poor swimming, 2 or 3=moderate or wild-type swimming. […] Phosphorylated STATs form dimers, translocate to nuclei, and from there are associated with various transcriptional activities. Dubowitz, V. and Sewry, C. (2006) Muscle Biopsy: A Practical Approach. Elsevier-Health Sciences Division.
The relatively relaxed zebrafish was initially identified due to a spontaneous autosomal recessive mutation within the ryr1b gene^30. Specifically, ryr1b mutants carry a 4046 base pair (bp) DNA insertion in the intron between exons 48 and 49 that includes an additional 32 bp sequence found in mutant cDNA (FIG. 3)^30. Genotypes of individual embryos were examined using three-primer genomic PCR, with an expected wild-type band of 1,668 bp and a mutant band of 653 bp. Primer sequences were as follows: ryr1b #1 (forward): 5′-[…]-3′ (SEQ ID NO: 4); ryr1b #2 (reverse): 5′-[…]-3′ (SEQ ID NO: 5); and ryr1b #3 (reverse): 5′-[…]-3′ (SEQ ID NO: 6).
The primary and secondary screens only tested chemical pools and individual compounds at a single concentration (2.0 μg/mL). Although beneficial in a high-throughput context, this approach can result in false positives and false negatives. […] For analysis, pools of 20 larvae obtained from heterozygous ryr1b matings were treated in duplicate with DMSO or with one of three different concentrations of NIF (1.0-100.0 μg/mL) at 1 dpf and scored for touch-evoked escape behaviors at 5 dpf. All scored larvae were then genotyped using three-primer genomic PCR. […] Next, hit expansion was used to verify JAK-STAT as a potential molecular pathway involved in ryr1b mutant pathology. […] A higher effective dose for 5,15-DPP was consistent with the IC50 measurements reported for each compound^40,41.

The subject of assay [3] is ryr1b skeletal muscles. In words: Tetanic force per cross-sectional area in larvae at 5 dpf. The following applies: WT, n=5, 9 biphasic 200 μs pulses at 300 Hz. On the procedure: Tetanic forces were measured following stimulation with 9 biphasic, 200 μs square-wave pulses at 300 Hz (WT-DMSO: 45.6±4.2 kPa, n=5; WT-NIF: 52.8±4.1 kPa, n=5; ryr1b-DMSO: 11.4±1.3 kPa, n=7; ryr1b-NIF: 25.4±4.0 kPa, n=7). Significance was determined by a one-way ANOVA (F=29.61, P<0.0001), followed by pairwise Tukey's HSD post hoc tests. […] Non-linear regression data of curves were not statistically different, as determined by an extra sum-of-squares F test (P=1.0).
Ryr1b mutants display weaker muscle contractions than wild-type clutchmates as early as 2 dpf^30. To investigate whether […] affects contractile strength in zebrafish, ryr1b mutants and unaffected controls were treated with the compound for several days. At 5 dpf, electrophysiological studies were performed with the help of Dr. Jeffrey Widrick.

In assay [4] the test system is phosphorylated Stat3. The assay is described as follows: Western blot of phosphorylated Stat3 at 5 dpf. To be noted: 10 μg/mL, normalized to β-Actin. The protocol: as §1
Western blotting was performed on groups of 50-100 wild-type or mutant zebrafish larvae at 5 dpf. […] Phospho-Stat3 band intensities were normalized to control bands and quantified in Image J (NIH).
To determine whether zebrafish stat3 is differentially expressed in the wild-type and Ryr1-deficient background, quantitative real-time RT-PCR was performed using fluorescently tagged Taqman probes.
A general note: A western blot detects proteins with antibodies after separation by electrophoresis.

Experimental findings from patent publication US10973912B2, “Treatment for myopathy” (Children's Medical Center Corporation, priority 2015, dated 2021) are described below.

On to `O=C(N/N=C/c1ccc([N+](=O)[O-])o1)c1ccc(O)cc1` [Nifuroxazide], for which the “body angle, wild-type larvae” value in assay [1] (20 days of treatment, 10.0 μg/mL, WT, n=6) was found to be 176.8±1.1 °. In assay [1] (20 days of treatment, 10.0 μg/mL, ryr1b, n=4, ryr1b-DMSO 142.6±6.2), the “body angle, ryr1b mutants” value came out at 174.4±2.0 °. Further, in assay [1] (treated from 1 to 20 dpf), the “body angles of treated ryr1b mutants” value was “significantly increased and statistically indistinguishable from unaffected controls”. Moreover, in assay [2] (treated at 1 dpf, touch-evoked escape behaviors at 5 dpf, tested 1.0-100.0 μg/mL), the “dose that improved mobility of ryr1b mutants / optimal activity” value came out at 10 µg/mL. In addition, the “touch-evoked escape behaviors / mobility of ryr1b mutants” value in assay [2] (treated from 1 dpf, scored and genotyped at 5 dpf) was “ryr1b mutants were among larvae that exhibited wild-type touch-evoked escape behaviors”. In addition, the “tetanic force per cross-sectional area, wild-type larvae” value in assay [3] is 52.8±4.1 kPa. Moreover, in assay [4], the “levels of phosphorylated Stat3 protein” value is listed as “larger decrease in ryr1b mutants than in unaffected controls”.
